Source: patent publication US4524206A, “1-Heteroaryl-4-(2,5-pyrrolidinedion-1-yl)alkyl)piperazine derivatives” (Mead Johnson & Company, priority 1983, dated 1985)

Test: pharmacological profile from the in vivo screening tests and in vitro receptor binding (tranquilizing profile)
Settings: potential indicated by test profile
From the text: The following in vivo screening tests were utilized as the basis to determine the tranquilizing profile and potential side-effect liabilities of the instant compounds.
As further indication of the psychotropic activity and specificity of the instant compounds, state of the art in vitro central nervous system receptor binding methodology can be employed. […] Inhibition of radiolabeled ligand binding to such specific high affinity sites is considered a measure of a compound's ability to affect corresponding central nervous system functions or cause side effects in vivo. This principle is employed in the following in vitro assay which is given by way of example.
Another test predictive of side effects measures protection against norepinephrine lethality. This procedure essentially relates to alpha-block and the unwanted side effects which accompany it, such as sedation and blood pressure lowering.

Row | Compound | pharmacological profile
1 | 3-(4-Fluorophenyl)-3-methyl-1-[4-[4-(2-pyrimidinyl)-1-piperazinyl]butyl]-2,5-pyrrolidinedione [Example 7] | potential non-dopaminergic antipsychotic activity
2 | O=C1CC(c2ccccc2)(c2ccccc2)C(=O)N1CCCCN1CCN(c2ncccn2)CC1 [Example 9, 3,3-Diphenyl-1-[4-[4-(2-pyrimidinyl)-1-piperazinyl]butyl]-2,5-pyrrolidinedione] | selective anxiolytic potential
3 | O=C1CC2(CCc3ccccc3C2)C(=O)N1CCCCN1CCN(c2ncccn2)CC1 (stereo not drawn) [Example 16, 1'-[4-[4-(2-Pyrimidinyl)-1-piperazinyl]butyl]spiro[1,2,3,4-tetrahydronaphthalene-2,3'-pyrrolidine-2',5'-dione]] | selective anxiolytic potential
